Measurements from the PolyMetriX glass transition set.
± gives the standard deviation of the reports.

Row | Compound | glass transition temperature
1 | *Nc1ccc(C(=O)c2ccc(NC(=O)c3cc(C(*)=O)cc(C(C)(C)C)c3)cc2)cc1 (repeat unit) | 271.00 °C
2 | *Oc1cc(CCCCCCCCC)cc(OC(=O)c2cccc(C(*)=O)c2)c1 (repeat unit) | 41.50 °C
3 | *CCCCCCCCCCOc1ccc(/C=C/c2ccc(OCCCCCCCCCCOP(=O)(O*)OCCCCCCCCCCOc3ccc(/N=N/c4ccc([N+](=O)[O-])cc4)cc3)cc2)cc1 (repeat unit) | 50.00 °C
4 | *CC(*)c1nc(C)nc(C)n1 (repeat unit) | 70.00 °C
5 | */C=C/CCCC(Cl)CCC* (repeat unit) | -63.00 °C
6 | *CCCCOC(=O)C1CCC(C(=O)O*)CC1 (repeat unit) | -10.50 °C
7 | *c1ccc(-c2ccc(NC(=O)c3cccc(C(=O)Nc4ccc(-c5ccc(-n6c(=O)c7cc8c(=O)n(*)c(=O)c8cc7c6=O)cc5)cc4)c3)cc2)cc1 (repeat unit) | 227.00 °C
8 | *Oc1ccccc1C(=O)OC(=O)c1ccccc1OC(=O)c1cccc(C(*)=O)c1 (repeat unit) | 105.00 °C
9 | *Oc1ccc(C2(c3ccc(Oc4ccc(C(=O)Oc5ccc(C6(c7ccc(OC(=O)c8ccc(*)cc8)cc7)CCC(c7ccccc7)CC6)cc5)cc4)cc3)CCC(C(C)(C)C)CC2)cc1 (repeat unit) | 172.00 °C
10 | *CCCC1(CCCNC(=O)CCCCC(=O)N*)c2ccccc2-c2ccccc21 (repeat unit) | 120.00 °C
11 | *CCCCCCCCCCCCCCCCOC(=O)Nc1ccc(Cc2ccc(NC(=O)O*)cc2)cc1 (repeat unit) | 40.00 °C
12 | *OC(COC(=O)c1c(F)c(F)c(-c2c(F)c(F)c(C(*)=O)c(F)c2F)c(F)c1F)COc1ccc(/N=N/c2ccc(C#N)cc2)cc1 (repeat unit) | 112.00 °C
13 | *c1ccc(C(C#N)(C(=O)OC)C(*)(C#N)C(=O)OC)cc1 (repeat unit) | 108.00 °C
14 | *CCCCCOC(=O)CCCCC(=O)O* (repeat unit) | -69.00 °C
15 | *CC(C[Si](*)(C)C)c1cccc2ccccc12 (repeat unit) | 39.00 °C
16 | *c1cccc(-c2cc(C(=O)Nc3ccc(OC(=O)c4cc(OCCCCCCCCCCCC)c(OCCCCCCCCCCCC)c(OCCCCCCCCCCCC)c4)cc3)cc(-c3cccc(N4C(=O)c5ccc(S(=O)(=O)c6ccc7c(c6)C(=O)N(*)C7=O)cc5C4=O)c3)c2)c1 (repeat unit) | 268.00 °C
17 | *OCC(F)(F)C(F)(F)C(F)(F)COc1nc(F)nc(*)c1F (repeat unit) | 0.00 °C
18 | *C(C)C(*)C(=O)OC12CC3CC(CC(C3)C1)C2 (repeat unit) | 236.50 °C
19 | *CC(*)C1=NCCN1 (repeat unit) | -48.3 °C

Row | Compound | glass transition temperature
20 | *c1cc(Br)c(Oc2c(Br)cc(N3C(=O)c4ccc(-c5ccc6c(c5)C(=O)N(*)C6=O)cc4C3=O)cc2Br)c(Br)c1 (repeat unit) | 287.00 °C
21 | *CCN(CCOC(=O)Nc1ccc(C)c(NC(=O)O*)c1)c1ccc(C(C#N)=C(C#N)C#N)cc1 (repeat unit) | 125.00 °C
22 | *OP(=O)(Oc1ccc([N+](=O)[O-])cc1)Oc1c(C)cc(S(=O)(=O)c2cc(C)c(*)c(C)c2)cc1C (repeat unit) | 173.00 °C
23 | *CC(*)C(=O)OCCCCCn1c2ccccc2c2ccccc21 (repeat unit) | 53.00 °C
24 | *c1ccc(Oc2ccc(-n3c(=O)c4c(Oc5ccc(OCCCCCCCCCCCC)cc5)c5c(=O)n(*)c(=O)c5c(Oc5ccc(OCCCCCCCCCCCC)cc5)c4c3=O)cc2)cc1 (repeat unit) | 218.00 °C
25 | *c1ccc(Cc2ccc(-n3c(=O)c4cc5c(=O)n(*)c(=O)c5cc4c3=O)c(C(C)(C)C)c2)cc1C(C)(C)C (repeat unit) | 217.00 °C
26 | *OC(=O)Oc1ccc(C(=O)Oc2ccc(OC(=O)OC3COC4C(*)COC34)cc2)cc1 (repeat unit) | 115.00 °C
27 | *CC(*)c1cccc2c1OCO2 (repeat unit) | 119.00 °C
28 | *CCCCCCN1C(=O)c2ccc(C(=O)c3ccc4c(c3)C(=O)N(*)C4=O)cc2C1=O (repeat unit) | 127.00 °C
29 | *Nc1ccc(C(c2ccc(NC(=O)c3ccc(C(*)=O)cc3)cc2)(C(F)(F)F)C(F)(F)F)cc1 (repeat unit) | 290.00 °C
30 | *CC(*)(C)C(=O)OCCC1CC[N+](C)(CCCCCCOc2ccc(/N=N/c3ccc([N+](=O)[O-])cc3)cc2)CC1 (repeat unit) | 57.80 °C
31 | *OC(=O)c1ccc(C(=O)OC2COC3C(*)COC23)o1 (repeat unit) | 192.50 °C
32 | *C/C=C/C[Si](*)(C)CCCOc1ccccc1 (repeat unit) | -30.00 °C
33 | *OC1C(C)(C)C(OC(=O)c2ccc(C(*)=O)cc2)C1(C)C (repeat unit) | 184.00 °C
34 | *CC1CC(*)C(OC(=O)CCCCCCCCCCOc2ccc(-c3ccc(C#N)cc3)cc2)C1OC(=O)CCCCCCCCCCOc1ccc(-c2ccc(C#N)cc2)cc1 (repeat unit) | 14.50 °C
35 | *c1cc(C(c2ccc(OCc3cc(OCCN(C)c4ccc(/C=C/C5=CC(=C(C#N)C#N)CC(C)(C)C5)cc4)cc(OCCN(C)c4ccc(/C=C/C5=CC(=C(C#N)C#N)CC(C)(C)C5)cc4)c3)c(N3C(=O)c4ccc(Oc5ccc6c(c5)C(=O)N(*)C6=O)cc4C3=O)c2)(C(F)(F)F)C(F)(F)F)ccc1OCc1cc(OCCN(C)c2ccc(/C=C/C3=CC(=C(C#N)C#N)CC(C)(C)C3)cc2)cc(OCCN(C)c2ccc(/C=C/C3=CC(=C(C#N)C#N)CC(C)(C)C3)cc2)c1 (repeat unit) | 178.00 °C
36 | *c1ccc(-c2cc(CCCCCCCC)c(-c3ccc(-c4ccc(-c5sc(-c6ccc([Si](C)(C)[Si](C)(C)[Si](C)(C)[Si](C)(C)[Si](C)(C)[Si](C)(C)[Si](C)(C)[Si](*)(C)C)s6)cc5CCCCCCCC)s4)s3)s2)s1 (repeat unit) | 13.00 °C
37 | *O[Si](C)(C)C#Cc1ccc(C#C[Si](*)(C)C)cc1 (repeat unit) | 126.00 °C
38 | *Nc1cccc(NC(=C(C#N)C#N)c2cccc(C(*)=C(C#N)C#N)c2)c1 (repeat unit) | 278.00 °C

Other lines, results leading:

Row | glass transition temperature | Compound
39 | 75.50 °C | *Oc1ccc(CC(NC(=O)Cc2ccc(OC(=O)CCC(*)=O)cc2)C(=O)OCC)cc1 (repeat unit)
40 | 89.00 °C | *Oc1ccc(C(c2ccc(OC(=O)c3ccc(OCCCCCCCCCCOc4ccc(C(*)=O)cc4)cc3)cc2)(C(F)(F)F)C(F)(F)F)cc1 (repeat unit)
41 | 120.00 °C | *CCCCCCCCN1C(=O)c2ccc(-c3ccc(-c4ccc5c(c4)C(=O)N(*)C5=O)cc3)cc2C1=O (repeat unit)
42 | 61.00 °C | *CC(*)(C)C(=O)OCCCCCCOc1ccc(/N=N/c2ccc(C#N)cc2)cc1 (repeat unit)
43 | 213.00 °C | *c1ccc(Oc2ccc(C(c3ccc(Oc4ccc(-c5nnc(*)n5-c5ccc(C)cc5)cc4)cc3)(C(F)(F)F)C(F)(F)F)cc2)cc1 (repeat unit)
44 | 221.00 °C | *CCC(=O)Nc1ccc(Oc2ccc(Oc3ccc(NC(=O)CCN4C(=O)c5ccc(C(=O)c6ccc7c(c6)C(=O)N(*)C7=O)cc5C4=O)cc3)cc2)cc1 (repeat unit)
45 | 272.00 °C | *c1ccc([Si](c2ccccc2)(c2ccccc2)c2ccc(-c3nnc(-c4cncc(-c5nnc(*)o5)c4)o3)cc2)cc1 (repeat unit)
46 | 329.00 °C | *c1ccc(Oc2ccc(-n3c(=O)c4cc5c(=O)n(*)c(=O)c5cc4c3=O)cc2-c2ccccc2)cc1 (repeat unit)
47 | 112.00 °C | */C=C/c1ccc(OC(=O)c2ccc(C(=O)Oc3cccc4ccc(*)nc34)cc2)cc1 (repeat unit)
48 | 184.42 ± 6.3 °C | *Oc1ccc(C(C)(C)c2ccc(OC(=O)c3cccc(C(*)=O)c3)cc2)cc1 (repeat unit) [Poly(bisphenol A isophthalate)]
49 | 301.00 °C | *c1cccc(-n2nc(-c3ccccc3)c3cc(Oc4ccc5c(-c6ccccc6)nn(*)c(=O)c5c4)ccc3c2=O)c1C#N (repeat unit)
50 | 260.00 °C | *c1ccc(-c2nc(-c3cccc(-c4nnc(-c5ccccc5)c(*)n4)n3)nnc2-c2ccccc2)cc1 (repeat unit)
51 | -4.00 °C | *CCCCCCCCCCC(c1ccc(O)cc1)C(*)c1ccc(O)cc1C (repeat unit)
52 | 63.00 °C | *Oc1ccc(CC(NC(=O)Cc2ccc(OC(=O)CC(C)CCC(*)=O)cc2)C(=O)OCC)cc1 (repeat unit)
53 | 12.00 °C | *O[Si](*)(C)CCCCCCOc1ccc(C(=O)Oc2ccc(OCCCCCC)cc2)cc1 (repeat unit)
54 | 130.00 °C | *CC(*)c1ccc(COc2ccc(-c3ccc(-c4ccc(C)s4)c4nsnc34)cc2)cc1 (repeat unit)
55 | 230.00 °C | *CC(=O)Nc1ccc(Oc2ccc(Oc3ccc(NC(=O)CN4C(=O)c5ccc(C(=O)c6ccc7c(c6)C(=O)N(*)C7=O)cc5C4=O)cc3)cc2)cc1 (repeat unit)
56 | 182.00 °C | *Oc1ccc(-c2ccc(-c3ccc(Oc4ccc(C(C)(C)c5ccc(*)cc5)cc4)cc3)cc2)cc1 (repeat unit)
57 | 236.00 °C | *Oc1cccc2ccc(Oc3ccc(NC(=O)c4ccc(Oc5ccc(C(=O)Nc6ccc(*)cc6)cc5)cc4)cc3)cc12 (repeat unit)
58 | 300.00 °C | *c1ccc(Oc2ccc(-c3cc(-c4ccc(Oc5ccc(-c6cc(*)nc7ccccc67)cc5)cc4)c4ccccc4n3)cc2)cc1 (repeat unit)
59 | 220.00 °C | *Oc1ccc(C(C)(C)c2ccc(OC(=O)c3ccc(S(=O)(=O)c4ccc(C(*)=O)cc4)cc3)cc2)cc1 (repeat unit)
60 | 49.00 °C | *O[Si](*)(C)CCCOc1ccc(C(=O)Oc2ccc(-c3ccc(OC(=O)c4cc(OCCCCC)c(OCCCCC)c(OCCCCC)c4)cc3)cc2)cc1 (repeat unit)
61 | 264.00 °C | *c1c(C)cc(Cc2cc(C)c(N3C(=O)c4ccc(Oc5c(C)cc(Cc6cc(C)c(Oc7ccc8c(c7)C(=O)N(*)C8=O)c(C)c6)cc5C)cc4C3=O)c(C)c2)cc1C (repeat unit)
62 | 70.00 °C | *Oc1ccc(CC(NC(=O)CCc2ccc(OC(=O)CCCCC(*)=O)cc2)C(=O)OC)cc1 (repeat unit)
